Data: US7993662B2, “Transparent solid oil cosmetics” (Kokyu Alcohol Kogyo Co., Ltd., priority 2005, dated 2011)

Test: Evaluation of hardness (EZ-Test-20N hardness meter, needle penetration)
Format: physicochemical
Conditions: UNICLEAR 100VG: 30% with 70% of the listed component; 25° C.
Procedure: A sample such as a solid or an oil-based cosmetic was stored in a temperature-controlled room at 25° C. for at least 1 day, and measurement was carried out using an EZ-Test-20N hardness meter (manufactured by Shimadzu Corporation). The needle diameter was 1.0 mmφ, and the maximum value measured for the stress (N) at a needle penetration depth of 10 mm with a test speed of 10 mm/min was defined as the hardness.
Measurement was carried out using an EZ-Test-20N hardness meter (manufactured by Shimadzu Corporation). The needle diameter was 1.0 mmφ, and the maximum value measured for the stress (N) at a needle penetration depth of 10 mm with a test speed of 10 mm/min was defined as the hardness.

Row | Compound | Hardness
1 | CCCCCCCCCCCCCCCCOC(=O)C(CC)CCCC (stereo not shown) [CEH, Cetyl ethylhexanoate] | 0.70 N
2 | CC(C)CCCCCCCCCCCCCCCOC(=O)CC(O)C(=O)OCCCCCCCCCCCCCCCC(C)C (stereo not shown) [DIS, Diisostearyl malate] | 0.80 N
3 | CC(C)CCCCCCCCCCCCCCC(=O)OC(C)C [IPIS, Isopropyl isostearate] | 0.60 N
4 | CC(C)CCCCCCCCCCCCCCCOC(=O)CCCCCCCCCCCCCCC(C)C [ISIS, Isostearyl isostearate] | 0.05 N
5 | CC(C)CCCCCCCCCCOC(=O)CCCCCC(C)C [KAK139, Isotridecyl isononanoate] | 0.50 N
6 | CCCCC(CC)C(=O)OCC(C)(C)COC(=O)C(CC)CCCC (stereo not shown) [NDO, Neopentylglycol diethylhexanoate] | 0.90 N
7 | CC(C)CCCCCCCCCCCCCCC(=O)OCC(COC(=O)CCCCCCCCCCCCCCC(C)C)(COC(=O)CCCCCCCCCCCCCCC(C)C)COC(=O)CCCCCCCCCCCCCCC(C)C [PTI, Pentaerythrityl tetraisostearate] | 0.01 N
8 | CCCCC(CC)C(=O)OCC(COC(=O)C(CC)CCCC)(COC(=O)C(CC)CCCC)COC(=O)C(CC)CCCC (stereo not shown) [PTO, Pentaerythrityl tetraethylhexanoate] | 0.04 N
9 | CC(C)CCCC(C)CCCC(C)CCCCC(C)CCCC(C)CCCC(C)C (stereo not shown) [SQ, Squalane] | 0.02 N
10 | CC(C)CCCCCCCCCCCCCCC(=O)OCC(COC(=O)CCCCCCCCCCCCCCC(C)C)OC(=O)CCCCCCCCCCCCCCC(C)C [TISG, Triisostearin] | 0.03 N
11 | CCCCC(CC)C(=O)OCC(COC(=O)C(CC)CCCC)OC(=O)C(CC)CCCC (stereo not shown) [TOG, Triethylhexanoin] | 0.06 N
12 | CCC(COC(=O)CCCCCCCCCCCCCCC(C)C)(COC(=O)CCCCCCCCCCCCCCC(C)C)COC(=O)CCCCCCCCCCCCCCC(C)C [TTI, Trimethylolpropane triisostearate] | 0.01 N
13 | Polyglyceryl-2 diisostearate [PGIS22] | 0.33 N
14 | Polyglyceryl-2 isostearate [PGIS21] | 0.35 N
15 | Polyglyceryl-2 triisostearate [PGIS23] | 0.50 N

Same assay, conditions: Versamid 930: 30% with 70% of the listed component; 25° C.

Row | Compound | Hardness
16 | CC(C)CCCCCCCCCCCCCCCOC(=O)CC(O)C(=O)OCCCCCCCCCCCCCCCC(C)C (stereo not shown) [DIS, Diisostearyl malate] | 0.12 N
17 | Polyglyceryl-2 diisostearate [PGIS22] | 3.00 N

Same assay, conditions: […] A200V: 30% with 70% of the listed component; 25° C.

Row | Compound | Hardness
18 | CCCCCCCCCCCCC(CO)CCCCCCCCCC (stereo not shown) [Example 24SP, Decyltetradecanol] | 0.05 N
19 | CCCCCCCCCCCCCCC(CO)CCCCCCCCCCCC (stereo not shown) [Example 28SP, Dodecylhexadecanol] | 0.09 N
20 | CCC(COC(=O)CCCCCCCCCCCCCCC(C)C)(COC(=O)CCCCCCCCCCCCCCC(C)C)COC(=O)CCCCCCCCCCCCCCC(C)C [TTI, Trimethylolpropane triisostearate] | 0.02 N
21 | Trimethylolpropane triethylhexanoate [TTO] | 0.03 N

Test: Exudation (45° C. for 2 hours, then 25° C. for 3 hours, visual)
Format: physicochemical
Set-up: key: A: When the amount of exudation was small and there were no oil droplets; B: when a slight degree of exudation was observed but the exudation went back in the temperature-controlled room at 25° C.; when the amount of exudation was large and the exudation did not go back even in the temperature-controlled room at 25° C
Conditions: UNICLEAR 100VG: 30% with 70% of the listed component
Procedure: After the sample stored in the 50 mL glass container as described in the above-mentioned sample preparation method was stored in a temperature-controlled room at 45° C. for 2 hours, the amount of exudation on the surface of the sample was visually evaluated. The extent to which the exudation went back when the sample was returned to the temperature-controlled room at 25° C. and stored for 3 hours was also evaluated.

Row | Compound | Exudation properties
22 | CCCCCCCCCCCCCCCCOC(=O)C(CC)CCCC (stereo not shown) [CEH, Cetyl ethylhexanoate] | A
23 | CC(C)CCCCCCCCCCCCCCCOC(=O)CC(O)C(=O)OCCCCCCCCCCCCCCCC(C)C (stereo not shown) [DIS, Diisostearyl malate] | A
24 | CC(C)CCCCCCCCCCCCCCC(=O)OC(C)C [IPIS, Isopropyl isostearate] | A
25 | CC(C)CCCCCCCCCCCCCCCOC(=O)CCCCCCCCCCCCCCC(C)C [ISIS, Isostearyl isostearate] | B
26 | CC(C)CCCCCCCCCCOC(=O)CCCCCC(C)C [KAK139, Isotridecyl isononanoate] | A
27 | CCCCC(CC)C(=O)OCC(C)(C)COC(=O)C(CC)CCCC (stereo not shown) [NDO, Neopentylglycol diethylhexanoate] | A
28 | CC(C)CCCCCCCCCCCCCCC(=O)OCC(COC(=O)CCCCCCCCCCCCCCC(C)C)(COC(=O)CCCCCCCCCCCCCCC(C)C)COC(=O)CCCCCCCCCCCCCCC(C)C [PTI, Pentaerythrityl tetraisostearate] | B
29 | CCCCC(CC)C(=O)OCC(COC(=O)C(CC)CCCC)(COC(=O)C(CC)CCCC)COC(=O)C(CC)CCCC (stereo not shown) [PTO, Pentaerythrityl tetraethylhexanoate] | B
30 | CC(C)CCCC(C)CCCC(C)CCCCC(C)CCCC(C)CCCC(C)C (stereo not shown) [SQ, Squalane] | A
31 | CC(C)CCCCCCCCCCCCCCC(=O)OCC(COC(=O)CCCCCCCCCCCCCCC(C)C)OC(=O)CCCCCCCCCCCCCCC(C)C [TISG, Triisostearin] | B
32 | CCCCC(CC)C(=O)OCC(COC(=O)C(CC)CCCC)OC(=O)C(CC)CCCC (stereo not shown) [TOG, Triethylhexanoin] | B
33 | CCC(COC(=O)CCCCCCCCCCCCCCC(C)C)(COC(=O)CCCCCCCCCCCCCCC(C)C)COC(=O)CCCCCCCCCCCCCCC(C)C [TTI, Trimethylolpropane triisostearate] | B
34 | Polyglyceryl-2 diisostearate [PGIS22] | A
35 | Polyglyceryl-2 isostearate [PGIS21] | A
36 | Polyglyceryl-2 triisostearate [PGIS23] | A

Same assay, conditions: Versamid 930: 30% with 70% of the listed component

Row | Compound | Exudation properties
37 | CC(C)CCCCCCCCCCCCCCCOC(=O)CC(O)C(=O)OCCCCCCCCCCCCCCCC(C)C (stereo not shown) [DIS, Diisostearyl malate] | A
38 | Polyglyceryl-2 diisostearate [PGIS22] | A

Same assay, conditions: […] A200V: 30% with 70% of the listed component

Row | Compound | Exudation properties
39 | CCCCCCCCCCCCC(CO)CCCCCCCCCC (stereo not shown) [Example 24SP, Decyltetradecanol] | C
40 | CCCCCCCCCCCCCCC(CO)CCCCCCCCCCCC (stereo not shown) [Example 28SP, Dodecylhexadecanol] | C
41 | CCC(COC(=O)CCCCCCCCCCCCCCC(C)C)(COC(=O)CCCCCCCCCCCCCCC(C)C)COC(=O)CCCCCCCCCCCCCCC(C)C [TTI, Trimethylolpropane triisostearate] | B
42 | Trimethylolpropane triethylhexanoate [TTO] | B

Test: Miscibility evaluation (visual, 100° C. to 110° C.)
Format: physicochemical
Conditions: result in words
Procedure: Sample preparation method: Predetermined amounts (mass %) of all components were weighed, dissolved at a temperature of 100° C. to 110° C. as appropriate, stirred until uniform, then cooled to 80° C. to 90° C. while stirring, poured into a preheated 50 mL glass container, transferred to a temperature-controlled room at 45° C., stored for 1 hour while gradually cooling, further transferred to a temperature-controlled room at 25° C., and stored for at least 1 day, thus giving a sample. Evaluation Methods for Various Characteristics (1) Miscibility Evaluation Method
The miscibility at a temperature of 100° C. to 110° C. when preparing the sample was evaluated visually as a degree of difficulty. One that was easily miscible was evaluated as ‘A’, one that was slightly difficulty miscible was evaluated as ‘B’, and one that was difficulty miscible was evaluated as ‘C’.

Row | Compound | miscibility with the base
43 | Nc1cc(S(=O)(=O)[O-])cc2cc(S(=O)(=O)[O-])c(N=Nc3ccccc3)c(O)c12.[Na+].[Na+] [Red. No. 227] | particularly excellent
